Our source for the TGI values is PubChem BioAssay (NCI).

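Where inhibition never reached the appropriate level, the endpoint shown equals the highest concentration tested. Otherwise, values were interpolated linearly from a five-concentration, 48-hour dose response in 96-well plates. At the TGI there is no net growth.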 A value given as a limit tells only on which side of the number the result lay.

Assay in all cases: DTP human tumour cell line panel, 48 h
The test system of test [1] is LOX IMVI melanoma.
For test [2], the system named is SN12C renal.
Test [3] concerns SW-620 colon.
The test system of test [4] is SNB-19 CNS.
Test [5] relates to UACC-257 melanoma.
The subject of test [6] is CAKI-1 renal.
The test system of test [7] is MDA-N.
Test [8] relates to BT-549 breast.
Test [9] relates to HS 578T breast.
For test [10], the system named is T-47D breast.
The test system of test [11] is A498 renal.
Test [12] relates to MCF7 breast.
For test [13], the system named is EKVX NSCLC.
Test [14] has as its system NCI-H522 lung.
In test [15] the test system is K-562 leukemia.
The subject of test [16] is CCRF-CEM leukemia.
The subject of test [17] is PC-3 prostate.
For test [18], the system named is SR leukemia.

One may read the TGI as the concentration giving total growth inhibition. High values mean less potent growth arrest, low ones more potent growth arrest. `O=C1OC(C2Cc3ccc4ccccc4c3C2=O)c2ccccc21` (centres undefined): the TGI in test [1] was over 100 µM; in [2] it was over 100 µM; in [3], over 100 µM; in test [4] it was 92.6 µM; in test [5], over 100 µM; in test [6], over 100 µM. For the same compound, the concentration for total growth inhibition (TGI) in test [7] is over 100 µM; in test [8], over 100 µM; in [9] it was 88.9 µM; in test [10], over 100 µM; in test [11] it was over 100 µM; in test [12], over 100 µM. Besides, the TGI in [13], in [14], in test [15], in test [16], in test [17] and in test [18] was over 100 µM throughout.

Take `COc1ccc(N2C(=O)CC(=O)N(NC(=O)C(C)Oc3ccccc3C)C2=S)cc1` (centres undefined): the TGI in [1], in [2], in [3], in [4], in test [5] and in [6] was over 100 µM in each case. Moreover, the TGI in test [7], in test [8], in [9], in test [10], in test [11] and in [12] was over 100 µM in each case. The TGI in [13], in test [14], in test [15], in test [16], in [17] and in test [18] was over 100 µM each time.

Take `O=S(=O)(O)C(CO)c1ccccc1` (centres undefined) (tested in a mixture with another compound): the TGI in [1], in [2], in test [3], in [4], in [5] and in [6] was over 100 µM in each case. The total growth inhibition concentration (TGI) in [7], in [8], in test [9], in [10], in [11] and in [12] was over 100 µM throughout. Also, the total growth inhibition concentration (TGI) in [13], in [14], in [15], in test [16], in [17] and in test [18] was over 100 µM each time.

Consider `Clc1ccc(-c2nnc3sc4nc5ccccc5c-4nn23)c(Cl)c1`, for which the concentration for total growth inhibition (TGI) in test [1], in test [2], in test [3], in test [4], in [5] and in test [6] was over 100 µM each time. For the same compound, the concentration for total growth inhibition (TGI) is 82.6 µM in test [7]; 93.8 µM in [8]; over 100 µM in [9]; over 100 µM in test [10]; over 100 µM in [11]; over 100 µM in test [12]. In addition, the TGI in [13], in [14], in test [15], in test [16], in test [17] and in test [18] was over 100 µM in each case.

Take `N#CC(C#N)=C1SC(=Nc2ccccc2)C(=Nc2ccccc2)N1c1ccccc1`: the TGI in test [1] is 24.4 µM; in test [2], 77.2 µM; in test [3], 11.5 µM; in test [4], over 100 µM; in test [5], 30 µM; in test [6], over 56.3 µM. Also, the TGI in test [7] is 37.8 µM; in test [8], 21.5 µM; in test [9], over 93 µM; in test [10], 18 µM; in [11] it was over 92.2 µM; in [12], over 58.7 µM. Besides, the TGI in test [13] was over 100 µM; in [14] it was 4.08 µM; in [15] it was 7.12 µM; in test [16] it was 6.35 µM; in [17], 25.1 µM; in [18] it was over 26.2 µM.

On to `O=C(O)CN1CCN2CCCCCN(CC1)CCN(CC(=O)O)CC2`, for which the total growth inhibition concentration (TGI) in [1], in test [2], in test [3], in [4], in [5] and in test [6] was over 100 µM throughout. For the same compound, the TGI in test [7], in [8], in [9], in test [10], in test [11] and in test [12] was over 100 µM throughout. The TGI in test [13], in [14], in [15], in test [16], in [17] and in [18] was over 100 µM throughout.

Consider `Cc1nn(-c2ccccc2)c2c1C(c1cc3ccccc3nc1Cl)NC(=O)N2` (centres undefined), for which the concentration for total growth inhibition (TGI) was 44.8 µM in test [1]; 67.5 µM in [2]; 36.7 µM in test [3]; 48.1 µM in test [4]; 85.9 µM in test [5]; over 100 µM in test [6]. Further, the TGI in test [7] is 37.2 µM; in test [8] it was 36.8 µM; in test [9], 96.2 µM; in test [10], over 100 µM; in test [11], 62 µM; in test [12] it was 73.9 µM. Moreover, the TGI in test [13] is 88.8 µM; in test [14], 35.4 µM; in test [15], over 100 µM; in [16], 71.6 µM; in [17], 43.7 µM; in test [18], over 100 µM.

For the compound `C=CCc1cc(-c2nc(=S)[nH][nH]2)ccc1N=NNc1ccc(C(=O)O)cc1`, the TGI in test [1], in test [2], in [3], in test [4], in test [5] and in test [6] was over 100 µM each time. Moreover, the TGI in test [7] is over 100 µM; in test [8], 73.8 µM; in [9], over 100 µM; in test [10], 70.2 µM; in test [11], over 100 µM; in test [12] it was over 100 µM. The concentration for total growth inhibition (TGI) in test [13], in test [14], in test [15], in [16], in [17] and in [18] was over 100 µM in each case.

`CC(=O)NC1C(OCc2ccccc2)OC(CO)C(O)C1OCC(=O)N[C@@H](C)C(=O)N[C@H](CCC(=O)NCCCNc1c2ccccc2nc2cccc([N+](=O)[O-])c12)C(N)=O` (some centres undefined): the TGI in [1] was 0.259 µM; in test [2] it was 0.327 µM; in test [4], 0.552 µM; in [5], 0.177 µM; in test [6], 0.334 µM; in test [7], 0.102 µM. The TGI in test [8] amounted to 0.287 µM; in test [9], 0.675 µM; in [10] it was 0.25 µM; in test [11], 0.944 µM; in [12] it was 2.42 µM; in [13], 0.264 µM. For the same compound, the TGI in test [14] was 0.0383 µM; in test [15], over 39.8 µM; in test [16], over 100 µM; in test [17], 0.493 µM; in test [18], 46.7 µM.

With `O=C(O)CN1CCNCCN(CC(=O)O)CCN(CC(=O)O)CCNCC1`, the TGI in test [1], in test [2], in [3], in test [4], in [5] and in test [6] was over 100 µM throughout. The TGI in test [7], in test [8], in [9], in test [10], in [11] and in test [12] was over 100 µM each time. In addition, the concentration for total growth inhibition (TGI) in [13], in test [14], in test [15], in test [16], in test [17] and in test [18] was over 100 µM in each case.

With `COC(=O)/C=C\C(C#N)(C#N)N=Cc1ccc(C)cc1`, the TGI in [1] is 5.8 µM; in test [2], 29.8 µM; in test [3], over 27.9 µM; in test [4], 43.1 µM; in test [5], 12.6 µM; in [6], 6.53 µM. Moreover, the concentration for total growth inhibition (TGI) in test [7] amounted to 14 µM; in test [8] it was 11.2 µM; in [9], 45.3 µM; in test [10] it was 4.61 µM; in test [11], 31.8 µM; in [12], 3.68 µM. Also, the TGI in test [13] amounted to 28.7 µM; in test [14], 1.64 µM; in test [15], 16.7 µM; in test [16], 2.1 µM; in test [17], 15.2 µM; in test [18] it was 3.8 µM.

Consider `O=C(CCn1ccnc1[N+](=O)[O-])NCCCn1ccnc1[N+](=O)[O-]`, for which the TGI in [1], in [2], in test [3], in test [5], in test [6] and in test [7] was over 100 µM throughout. Further, the TGI in test [8], in test [9], in [10], in test [11], in test [12] and in test [13] was over 100 µM each time. For the same compound, the TGI in test [14], in test [15], in [16], in [17] and in [18] was over 100 µM throughout.

Consider `Oc1cc(Cl)cc2cccnc12`, for which the TGI is 28 µM in test [1]; over 100 µM in test [2]; 19.7 µM in test [3]; over 100 µM in test [4]; over 29.9 µM in [5]; over 100 µM in [6]. Moreover, the TGI was over 100 µM in test [7]; over 91.1 µM in test [8]; over 48.5 µM in [9]; 26.2 µM in [10]; 59.6 µM in [11]; 7.87 µM in [12]. The TGI in test [13] is over 30.1 µM; in [14], 5.32 µM; in [15], 2.66 µM; in [16], 1.95 µM; in test [17], over 100 µM; in [18], 4.27 µM.

For `NCCCN1c2ccccc2Sc2ccc(Cl)cc21`, the TGI in test [1] was 7.31 µM; in test [2], over 10 µM; in [3] it was over 7 µM; in [4], over 10 µM; in test [5], over 10 µM; in test [6] it was over 10 µM. Moreover, the TGI in [7] is over 5.98 µM; in test [8], over 10 µM; in [9], over 10 µM; in [10] it was over 9.08 µM; in [11], over 10 µM; in [12] it was 3.21 µM. The TGI is over 10 µM in test [13]; over 5.15 µM in test [14]; over 8.41 µM in test [15]; over 10 µM in test [16]; over 10 µM in test [17]; over 8.89 µM in [18].

For `CN1CCOC1c1ccccc1O` (centres undefined), the TGI in test [1], in test [3], in test [4], in [5], in [6] and in test [7] was over 100 µM in each case. For the same compound, the TGI in test [8], in test [9], in test [10], in [11], in [12] and in [13] was over 100 µM in each case. Also, the TGI in test [14], in test [15], in test [16], in [17] and in test [18] was over 100 µM throughout.

For `O=[N+]([O-])C(=C(Nc1cccc2cccnc12)Nc1cccc2cccnc12)C(Cl)=C(Cl)Cl`, the TGI in test [1] is over 100 µM; in test [2] it was over 95.7 µM; in test [3] it was over 100 µM; in [4], over 100 µM; in test [6], over 92.2 µM; in test [7], over 69.7 µM. The TGI was over 100 µM in test [8]; over 100 µM in [9]; over 100 µM in [10]; over 100 µM in [11]; 54.8 µM in test [12]; over 100 µM in test [13]. The TGI in [14] is 56.3 µM; in [15], over 100 µM; in test [16], over 100 µM; in test [17], over 100 µM; in test [18], over 100 µM.
